# According to publication PMC7180948, “New Insights into 4-Anilinoquinazolines as Inhibitors of Cardiac Troponin I–Interacting Kinase (TNNi3K)” (Molecules, 2020):
# Assays:
# Assay in all cases: biochemical
# Design in all cases: KINOMEscan competition binding panel (Eurofins DiscoverX), single concentration, percent inhibition
# Details in all cases: read-out: 15 at 1 µM % inhibition
# CAMKK1 = CAMKK1 (Homo sapiens, UniProt Q8N5S9)
# Summary of the method: (§1)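 Kinome-wide profiling (KINOMEscan, >400 human kinases) was run at 1 µM compound.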
# [1] = biological target: T1, RSK4(Kin.Dom.2-C-terminal) (Homo sapiens, UniProt Q9UK32)
# T1 construct: gene RPS6KA6; Kin.Dom.2-C-terminal
# Summary of the method: as §1
# PIK3CA = PIK3CA (Homo sapiens, UniProt P42336)
# Summary of the method: as §1
# CDK7 = CDK7 (Homo sapiens, UniProt P50613)
# Summary of the method: as §1
# PIK3CA(M1043I) = PIK3CA(M1043I) (Homo sapiens, UniProt P42336, M1043I)
# Summary of the method: as §1
# FGFR3(G697C) = FGFR3(G697C) (Homo sapiens, UniProt P22607, G697C)
# Summary of the method: as §1
# CAMK4 = CAMK4 (Homo sapiens, UniProt Q16566)
# Summary of the method: as §1
# FLT3(ITD,F691L) = FLT3(ITD,F691L) (Homo sapiens, UniProt P36888, F691L/ITD)
# Summary of the method: as §1
# TAOK3 = TAOK3 (Homo sapiens, UniProt Q9H2K8)
# Summary of the method: as §1
# [2] = biological target: T2, ABL1(H396P)-phosphorylated (Homo sapiens, UniProt P00519, H396P)
# T2 construct: phosphorylated
# Summary of the method: as §1
# TAOK2 = TAOK2 (Homo sapiens, UniProt Q9UL54)
# Summary of the method: as §1
# CDKL3 = CDKL3 (Homo sapiens, UniProt Q8IVW4)
# Summary of the method: as §1
# TLK1 = TLK1 (Homo sapiens, UniProt Q9UKI8)
# Summary of the method: as §1
# ACVR1B = ACVR1B (Homo sapiens, UniProt P36896)
# Summary of the method: as §1
# FES = FES (Homo sapiens, UniProt P07332)
# Summary of the method: as §1
# CSNK2A2 = CSNK2A2 (Homo sapiens, UniProt P19784)
# Summary of the method: as §1
# DYRK1A = DYRK1A (Homo sapiens, UniProt Q13627)
# Summary of the method: as §1
# p38-beta = biological target: T3, p38-beta (Homo sapiens, UniProt Q15759)
# T3 construct: gene MAPK11
# Summary of the method: as §1
# BRSK2 = BRSK2 (Homo sapiens, UniProt Q8IWQ3)
# Summary of the method: as §1
# PKAC-beta = biological target: T4, PKAC-beta (Homo sapiens, UniProt P22694)
# T4 construct: gene PRKACB
# Summary of the method: as §1
# PIK3CA(H1047Y) = PIK3CA(H1047Y) (Homo sapiens, UniProt P42336, H1047Y)
# Summary of the method: as §1
# ERBB2 = ERBB2 (Homo sapiens, UniProt P04626)
# Summary of the method: as §1
# STK39 = STK39 (Homo sapiens, UniProt Q9UEW8)
# Summary of the method: as §1
# CSNK1A1 = CSNK1A1 (Homo sapiens, UniProt P48729)
# Summary of the method: as §1
# Sequence of TLK1 (Q9UKI8 whole entry): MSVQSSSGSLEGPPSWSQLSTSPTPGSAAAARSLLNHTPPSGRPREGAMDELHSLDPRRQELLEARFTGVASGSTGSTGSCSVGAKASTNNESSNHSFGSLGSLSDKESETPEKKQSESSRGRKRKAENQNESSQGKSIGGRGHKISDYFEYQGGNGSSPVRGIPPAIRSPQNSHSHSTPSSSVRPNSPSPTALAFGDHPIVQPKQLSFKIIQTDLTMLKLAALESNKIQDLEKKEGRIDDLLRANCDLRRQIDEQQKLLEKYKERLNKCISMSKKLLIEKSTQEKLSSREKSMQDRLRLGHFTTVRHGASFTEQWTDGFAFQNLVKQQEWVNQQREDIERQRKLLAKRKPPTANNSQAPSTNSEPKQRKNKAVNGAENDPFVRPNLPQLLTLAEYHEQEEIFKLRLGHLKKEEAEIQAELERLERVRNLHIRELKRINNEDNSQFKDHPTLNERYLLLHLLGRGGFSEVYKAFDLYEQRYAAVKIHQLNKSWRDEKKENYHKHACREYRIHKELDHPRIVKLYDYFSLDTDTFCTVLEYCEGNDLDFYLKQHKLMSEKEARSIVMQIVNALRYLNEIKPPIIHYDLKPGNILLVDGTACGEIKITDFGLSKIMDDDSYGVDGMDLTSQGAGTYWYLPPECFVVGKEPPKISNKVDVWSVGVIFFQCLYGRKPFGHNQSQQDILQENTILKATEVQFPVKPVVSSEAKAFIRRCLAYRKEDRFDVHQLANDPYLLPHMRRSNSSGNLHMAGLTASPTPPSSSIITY
# T3 sequence (Q15759 whole entry): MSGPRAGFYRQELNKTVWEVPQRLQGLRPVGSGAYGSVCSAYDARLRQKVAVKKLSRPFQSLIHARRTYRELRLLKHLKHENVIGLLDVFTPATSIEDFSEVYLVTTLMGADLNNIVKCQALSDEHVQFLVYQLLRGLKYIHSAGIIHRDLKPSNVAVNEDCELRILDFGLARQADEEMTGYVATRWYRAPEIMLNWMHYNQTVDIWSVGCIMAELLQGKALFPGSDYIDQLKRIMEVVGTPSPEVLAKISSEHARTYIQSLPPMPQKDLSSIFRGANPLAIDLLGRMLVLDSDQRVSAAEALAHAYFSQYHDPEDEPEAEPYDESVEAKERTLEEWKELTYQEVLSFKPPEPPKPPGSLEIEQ
# Sequence of FLT3(ITD,F691L) (P36888 564-993 F691L): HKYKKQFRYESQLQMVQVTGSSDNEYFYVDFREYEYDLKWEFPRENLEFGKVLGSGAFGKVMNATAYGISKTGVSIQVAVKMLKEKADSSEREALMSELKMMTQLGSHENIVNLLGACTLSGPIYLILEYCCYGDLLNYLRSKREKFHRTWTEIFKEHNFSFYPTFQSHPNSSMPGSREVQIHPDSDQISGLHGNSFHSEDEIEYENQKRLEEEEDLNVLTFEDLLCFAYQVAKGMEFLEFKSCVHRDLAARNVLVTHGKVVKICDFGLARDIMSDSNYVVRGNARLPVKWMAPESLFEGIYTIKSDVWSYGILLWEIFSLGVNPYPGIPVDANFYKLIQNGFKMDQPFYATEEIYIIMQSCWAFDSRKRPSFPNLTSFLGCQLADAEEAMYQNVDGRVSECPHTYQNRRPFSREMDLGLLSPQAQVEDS
# Sequence of FES (P07332 whole entry): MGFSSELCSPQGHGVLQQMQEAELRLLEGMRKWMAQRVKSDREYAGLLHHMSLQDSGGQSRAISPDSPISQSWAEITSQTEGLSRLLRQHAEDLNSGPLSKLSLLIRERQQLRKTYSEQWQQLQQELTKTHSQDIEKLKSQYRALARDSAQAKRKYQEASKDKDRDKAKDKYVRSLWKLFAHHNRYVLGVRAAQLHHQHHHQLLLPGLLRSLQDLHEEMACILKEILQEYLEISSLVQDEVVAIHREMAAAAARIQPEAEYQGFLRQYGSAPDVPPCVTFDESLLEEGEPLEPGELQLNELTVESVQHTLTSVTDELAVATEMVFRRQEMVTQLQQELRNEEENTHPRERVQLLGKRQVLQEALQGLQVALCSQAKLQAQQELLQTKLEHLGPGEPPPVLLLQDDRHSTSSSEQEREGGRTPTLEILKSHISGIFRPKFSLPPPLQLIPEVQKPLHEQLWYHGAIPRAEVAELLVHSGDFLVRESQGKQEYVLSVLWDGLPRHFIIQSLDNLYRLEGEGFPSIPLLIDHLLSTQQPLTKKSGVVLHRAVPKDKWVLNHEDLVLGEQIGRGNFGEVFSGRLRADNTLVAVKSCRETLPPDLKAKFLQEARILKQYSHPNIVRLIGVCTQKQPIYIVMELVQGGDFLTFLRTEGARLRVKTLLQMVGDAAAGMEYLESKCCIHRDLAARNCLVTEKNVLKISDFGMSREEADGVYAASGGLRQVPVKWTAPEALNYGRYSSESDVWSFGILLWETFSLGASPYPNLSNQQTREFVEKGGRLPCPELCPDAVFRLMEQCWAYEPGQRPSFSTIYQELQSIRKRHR
# Sequence of TAOK3 (Q9H2K8 whole entry): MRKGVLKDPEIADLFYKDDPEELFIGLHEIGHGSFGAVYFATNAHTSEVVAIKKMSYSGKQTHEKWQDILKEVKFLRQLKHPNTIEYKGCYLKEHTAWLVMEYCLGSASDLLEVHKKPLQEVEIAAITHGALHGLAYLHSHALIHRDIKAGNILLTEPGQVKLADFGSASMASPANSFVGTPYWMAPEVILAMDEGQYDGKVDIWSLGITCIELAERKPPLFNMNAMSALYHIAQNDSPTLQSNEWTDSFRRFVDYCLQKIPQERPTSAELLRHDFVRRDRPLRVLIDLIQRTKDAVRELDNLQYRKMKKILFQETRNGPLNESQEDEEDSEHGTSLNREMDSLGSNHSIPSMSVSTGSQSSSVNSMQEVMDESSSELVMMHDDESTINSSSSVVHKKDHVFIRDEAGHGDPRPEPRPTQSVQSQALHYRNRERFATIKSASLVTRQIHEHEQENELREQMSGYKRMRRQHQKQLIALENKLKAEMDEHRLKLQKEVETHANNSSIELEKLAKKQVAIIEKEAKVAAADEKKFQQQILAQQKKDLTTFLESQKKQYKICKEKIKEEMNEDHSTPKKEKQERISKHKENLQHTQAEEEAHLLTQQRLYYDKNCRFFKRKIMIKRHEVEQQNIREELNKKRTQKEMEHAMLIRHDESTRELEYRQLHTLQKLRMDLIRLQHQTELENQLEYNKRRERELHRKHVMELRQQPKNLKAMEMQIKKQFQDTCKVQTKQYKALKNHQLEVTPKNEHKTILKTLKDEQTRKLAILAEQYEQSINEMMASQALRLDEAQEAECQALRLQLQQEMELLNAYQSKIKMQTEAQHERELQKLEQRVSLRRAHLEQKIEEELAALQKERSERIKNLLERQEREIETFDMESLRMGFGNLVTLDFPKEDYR
# Sequence of PIK3CA(M1043I) (P42336 whole entry M1043I): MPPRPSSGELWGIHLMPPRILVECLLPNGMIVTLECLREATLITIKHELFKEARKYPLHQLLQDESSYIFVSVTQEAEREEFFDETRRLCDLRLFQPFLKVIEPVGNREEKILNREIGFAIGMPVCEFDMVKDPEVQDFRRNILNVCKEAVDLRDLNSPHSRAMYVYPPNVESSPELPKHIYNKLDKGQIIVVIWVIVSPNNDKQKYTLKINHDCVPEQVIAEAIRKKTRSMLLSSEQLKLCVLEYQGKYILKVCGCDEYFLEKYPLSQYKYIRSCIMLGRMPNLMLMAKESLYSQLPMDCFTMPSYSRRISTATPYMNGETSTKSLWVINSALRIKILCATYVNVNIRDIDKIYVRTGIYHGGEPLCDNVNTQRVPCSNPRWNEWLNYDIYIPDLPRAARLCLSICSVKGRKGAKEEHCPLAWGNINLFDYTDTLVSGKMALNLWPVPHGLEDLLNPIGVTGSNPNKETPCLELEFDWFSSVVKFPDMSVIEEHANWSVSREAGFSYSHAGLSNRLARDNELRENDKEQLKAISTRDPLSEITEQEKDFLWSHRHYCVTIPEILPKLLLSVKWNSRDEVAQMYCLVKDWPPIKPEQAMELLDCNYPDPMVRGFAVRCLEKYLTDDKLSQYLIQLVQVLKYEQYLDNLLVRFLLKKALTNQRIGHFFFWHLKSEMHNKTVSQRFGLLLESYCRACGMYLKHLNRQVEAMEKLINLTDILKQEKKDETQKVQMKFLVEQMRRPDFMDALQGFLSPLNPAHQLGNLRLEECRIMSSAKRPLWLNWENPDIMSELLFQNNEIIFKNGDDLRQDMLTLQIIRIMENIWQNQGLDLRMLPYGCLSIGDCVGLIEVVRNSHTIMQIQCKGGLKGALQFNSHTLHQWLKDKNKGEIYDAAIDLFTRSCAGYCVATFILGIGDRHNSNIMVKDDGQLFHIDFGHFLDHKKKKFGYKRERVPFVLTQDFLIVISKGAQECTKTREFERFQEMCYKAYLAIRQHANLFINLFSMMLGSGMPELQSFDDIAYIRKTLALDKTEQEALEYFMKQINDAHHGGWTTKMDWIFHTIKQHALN
# Sequence of ACVR1B (P36896 whole entry): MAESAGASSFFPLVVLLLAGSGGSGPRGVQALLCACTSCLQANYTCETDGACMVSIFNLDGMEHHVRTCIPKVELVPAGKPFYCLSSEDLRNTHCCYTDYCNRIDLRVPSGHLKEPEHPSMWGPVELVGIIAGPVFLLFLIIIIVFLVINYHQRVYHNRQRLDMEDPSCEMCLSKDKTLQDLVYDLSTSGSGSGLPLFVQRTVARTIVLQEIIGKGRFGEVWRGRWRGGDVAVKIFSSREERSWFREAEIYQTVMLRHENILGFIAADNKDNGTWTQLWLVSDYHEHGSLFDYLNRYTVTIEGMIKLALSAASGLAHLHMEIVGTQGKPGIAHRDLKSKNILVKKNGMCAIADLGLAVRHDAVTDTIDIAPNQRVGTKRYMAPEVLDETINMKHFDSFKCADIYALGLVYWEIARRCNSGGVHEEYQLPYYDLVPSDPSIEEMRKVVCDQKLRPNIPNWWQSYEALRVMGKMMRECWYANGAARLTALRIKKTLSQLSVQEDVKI
# Sequence of PIK3CA(H1047Y) (P42336 whole entry H1047Y): as the sequence (P42336 whole entry M1043I) above, with I1043M, H1047Y counted along it
# Sequence of PIK3CA (P42336 whole entry): as the sequence (P42336 whole entry M1043I) above, with I1043M counted along it
structure (smiles),measurement,setting,value
"CNS(=O)(=O)c1ccc(N(C)C)c(Nc2nc(C)nc3cc(OC)c(OC)cc23)c1 [compound 15, 3-((6,7-dimethoxy-2-methylquinazolin-4-yl)amino)-4-(dimethylamino)-N-methylbenzenesulfonamide]",inhibition at 1 µM,CAMKK1,2%
same,inhibition at 1 µM,[1],3%
same,inhibition at 1 µM,PIK3CA,13%
same,inhibition at 1 µM,CDK7,18%
same,inhibition at 1 µM,PIK3CA(M1043I),0%
same,inhibition at 1 µM,FGFR3(G697C),0%
same,inhibition at 1 µM,CAMK4,1%
same,inhibition at 1 µM,"FLT3(ITD,F691L)",0%
same,inhibition at 1 µM,TAOK3,16%
same,inhibition at 1 µM,[2],0%
same,inhibition at 1 µM,TAOK2,15%
same,inhibition at 1 µM,CDKL3,23%
same,inhibition at 1 µM,TLK1,9%
same,inhibition at 1 µM,ACVR1B,0%
same,inhibition at 1 µM,FES,0%
same,inhibition at 1 µM,CSNK2A2,14%
same,inhibition at 1 µM,DYRK1A,15%
same,inhibition at 1 µM,p38-beta,0%
same,inhibition at 1 µM,BRSK2,21%
same,inhibition at 1 µM,PKAC-beta,0%
same,inhibition at 1 µM,PIK3CA(H1047Y),21%
same,inhibition at 1 µM,ERBB2,1%
same,inhibition at 1 µM,STK39,2%
same,inhibition at 1 µM,CSNK1A1,0%
